# Assay results as given in US5559127A, “Fibrinogen receptor antagonists” (Merck & Co., Inc., priority 1995, dated 1996).
# Tested on: human platelets
# Assay: ADP-stimulated platelet aggregation assay (inhibition of aggregation of gel-filtered human platelets)
# Type: cell-based
# Details: fibrinogen 100 μg/ml, Ca2+ 1 mM, 10 uM ADP, 37° C., read-out: IC50 (dose inhibiting aggregation by 50% relative to a control lacking the compound)
# Description: The ADP-stimulated platelet aggregation assay was used to determine IC50 inhibition associated with compounds of the invention.
# Human platelets were isolated from fresh blood, collected into acid citrate/dextrose by differential centrifugation followed by gel filtration on Sepharose 2B in divalent ion-free Tyrode's buffer (pH 7.4) containing 2% bovine serum albumin. Platelet aggregation was measured at 37° C. in a a Chronolog aggregometer. The reaction mixture contained gel-filtered human platelets (2×10^8 […]), fibrinogen (100 μg/ml), Ca^2+ (1 mM), and the compound to be tested. Aggregation was initiated by adding 10 uM ADP 1 minute after the other components had been added. The reaction was allowed to proceed for at least 2 minutes. The extent of inhibition of aggregation was expressed as the percentage of the rate of aggregation observed in the absence of inhibitor. The IC50 is the dose of a particular compound inhibiting aggregation by 50% relative to a control lacking the compound.
row,Compound,IC50
1,CCCCS(=O)(=O)N[C@@H](Cc1ccc2oc(CCCC3CCNCC3)cc2c1)C(=O)O [2(S)-(Butylsulfonylamino)-3-{5-[2'-3-(piperidin-4-ylpropyl)benzofuranyl]}propionic acid],200 nM
2,CCCCS(=O)(=O)N[C@@H](Cc1ccc2oc(C(=O)NCC3CCNCC3)cc2c1)C(=O)O [2(S)-(Butylsulfonylamino)-3-{5-[2'-(4-piperidinylmethyl)aminocarbonyl]benzofuranyl}propionic acid],6600 nM
3,CCCCS(=O)(=O)N[C@@H](CNC(=O)c1ccc2[nH]c(CCC3CCNCC3)nc2c1)C(=O)O [2-[2-(4-Piperidinyl)ethyl]benzimidazole-5-carbonyl-[2(S)-butylsulfonylamino]-β-alanine],22 nM
4,O=C(N[C@@H](CNC(=O)c1ccc2cc(CCC3CCNCC3)sc2c1)C(=O)O)OCc1ccccc1 [2-[2-(Piperidin-4-yl)ethyl]benzothiophene-6-N-[3-(2(S)-N-carbobenzyloxyaminopropionic acid)]carboxamide],67 nM
5,CCCCS(=O)(=O)N[C@@H](CNC(=O)c1ccc2cc(CCC3CCNCC3)sc2c1)C(=O)O [2-[2-(Piperidin-4-yl)ethyl]benzothiophene-6-N-[3-(2(S)-butylsulfonylaminopropionic acid)]carboxamide],36 nM
6,O=C(NC[C@H](NS(=O)(=O)c1ccccc1)C(=O)O)c1cc2cc(OCCC3CCNCC3)ccc2[nH]1 [5-[2-(4-Piperidinylethyl)oxy]-2-indolecarbonyl-2(S)-phenylsulfonyl0amino-β-alanine],12 nM
